Experiments:
[1] = target: Tyrosine-protein kinase Srms (Homo sapiens) (UniProt Q9H3Y6); experiment: Inhibition of wild-type human partial length SRMS (L208 to P488 residues) expressed in mammalian expression system assessed as residual activity at 1 uM by Kinomescan method relative to control
[2] = target: Serine/threonine-protein kinase LATS2 (Homo sapiens) (UniProt Q9NRM7); experiment: Inhibition of wild-type human partial length LATS2 (Q641 to V1088 residues) expressed in mammalian expression system assessed as residual activity at 1 uM by Kinomescan method relative to control
[3] = target: Ephrin type-A receptor 5 (Homo sapiens) (UniProt P54756); experiment: Inhibition of wild-type human partial length EPHA5 (T627 to V930 residues) expressed in bacterial expression system assessed as residual activity at 1 uM by Kinomescan method relative to control
[4] = target: ALK tyrosine kinase receptor (Homo sapiens) (UniProt Q9UM73); experiment: Inhibition of wild-type human partial length ALK (I1088 to E1409 residues) expressed in mammalian expression system assessed as residual activity at 1 uM by Kinomescan method relative to control
[5] = Unbound fraction in rat blood; type: ADME, tissue-based
[6] = target: Ribosomal protein S6 kinase alpha-4 (Homo sapiens) (UniProt O75676); experiment: Inhibition of wild-type human partial length N-terminal RPS6KA4 kinase domain 1 expressed in bacterial expression system assessed as residual activity at 1 uM by Kinomescan method relative to control
[7] = target: Ribosomal protein S6 kinase alpha-1 (Homo sapiens) (UniProt Q15418); experiment: Inhibition of wild-type human partial length N-terminal RSK1 kinase domain 1 (M1 to E388 residues) expressed in bacterial expression system assessed as residual activity at 1 uM by Kinomescan method relative to control
[8] = target: Mitogen-activated protein kinase kinase kinase 7 (Homo sapiens) (UniProt O43318); experiment: Inhibition of wild-type human partial length TAK1 (M1 to Q303 residues) expressed in mammalian expression system assessed as residual activity at 1 uM by Kinomescan method relative to control
[9] = target: RAF proto-oncogene serine/threonine-protein kinase (Homo sapiens) (UniProt P04049); experiment: Inhibition of wild-type human partial length RAF1 (I330 to T640 residues) expressed in bacterial expression system assessed as residual activity at 1 uM by Kinomescan method relative to control
[10] = target: G protein-coupled receptor kinase 5 (Homo sapiens) (UniProt P34947); experiment: Inhibition of GRK5 (unknown origin) assessed as residual activity at 1 uM by Kinomescan method relative to control
[11] = target: Homeodomain-interacting protein kinase 1 (Homo sapiens) (UniProt Q86Z02); experiment: Inhibition of wild-type human partial length HIPK1 (M146 to I555 residues) expressed in mammalian expression system assessed as residual activity at 1 uM by Kinomescan method relative to control
[12] = target: NUAK family SNF1-like kinase 1 (Homo sapiens) (UniProt O60285); experiment: Inhibition of wild-type human partial length ARK5 (E25 to I332 residues) expressed in bacterial expression system assessed as residual activity at 1 uM by Kinomescan method relative to control
[13] = target: Serine/threonine-protein kinase B-raf (Homo sapiens) (UniProt P15056); experiment: Inhibition of wild type human BRAF (S429 to E741 residues) expressed in bacterial expression system assessed as residual activity at 1 uM by Kinomescan method relative to control
[14] = target: Rhodopsin kinase GRK7 (Homo sapiens) (UniProt Q8WTQ7); experiment: Inhibition of wild-type human full length GRK7 (M1 to L553 residues) expressed in mammalian expression system assessed as residual activity at 1 uM by Kinomescan method relative to control
[15] = target: Ephrin type-A receptor 1 (Homo sapiens) (UniProt P21709); experiment: Inhibition of wild-type human partial length EPHA1 (V588 to I913 residues) expressed in bacterial expression system assessed as residual activity at 1 uM by Kinomescan method relative to control
[16] = target: Myosin light chain kinase (Homo sapiens) (UniProt Q32MK0); experiment: Inhibition of MYLK3 (unknown origin) assessed as residual activity at 1 uM by Kinomescan method relative to control
[17] = target: Serine/threonine-protein kinase 32B (Homo sapiens) (UniProt Q9NY57); experiment: Inhibition of wild-type human full length YANK2 (M1 to S414 residues) expressed in bacterial expression system assessed as residual activity at 1 uM by Kinomescan method relative to control
[18] = target: Dual specificity protein kinase CLK4 (Homo sapiens) (UniProt Q9HAZ1); experiment: Inhibition of wild-type human partial length CLK4 (R135 to K481 residues) expressed in bacterial expression system assessed as residual activity at 1 uM by Kinomescan method relative to control
[19] = target: TRAF2 and NCK-interacting protein kinase (Homo sapiens) (UniProt Q9UKE5); experiment: Inhibition of wild-type human partial length TNIK (D4 to K311 residues) expressed in bacterial expression system assessed as residual activity at 1 uM by Kinomescan method relative to control
[20] = target: CDK1/Cyclin A (Homo sapiens) (UniProt P06493+P20248); experiment: Inhibition of wild-type human full length CDK1 (M1 to M297 residues) /Cyclin A expressed in mammalian expression system assessed as residual activity at 1 uM by Kinomescan method relative to control
[21] = target: cAMP-dependent protein kinase catalytic subunit beta (Homo sapiens) (UniProt P22694); experiment: Inhibition of wild-type human full length PKAC-beta (M1 to F351 residues) expressed in bacterial expression system assessed as residual activity at 1 uM by Kinomescan method relative to control
[22] = In vivo inhibition of LRRK2 in Han-Wistar rat assessed as reduction in Ser935 phosphorylation in lung at 10 to 100 mg/kg, po by Western blot analysis; type: functional; set-up: scale not given: the % may be the effect or the level left; settings: dose 10-100 mg/kg
[23] = target: Serine/threonine-protein kinase DCLK2 (Homo sapiens) (UniProt Q8N568); experiment: Inhibition of wild-type human partial length DCAMKL2 (K273 to V664 residues) expressed in bacterial expression system assessed as residual activity at 1 uM by Kinomescan method relative to control
[24] = target: Tyrosine-protein kinase Mer (Homo sapiens) (UniProt Q12866); experiment: Inhibition of wild-type human partial length c-MER (R557 to L884 residues) expressed in bacterial expression system assessed as residual activity at 1 uM by Kinomescan method relative to control
[25] = target: Mitogen-activated protein kinase 13 (Homo sapiens) (UniProt O15264); experiment: Inhibition of wild-type human full length p38-delta (M1 to L365 residues) expressed in bacterial expression system assessed as residual activity at 1 uM by Kinomescan method relative to control
[26] = target: Calcium/calmodulin-dependent protein kinase type II subunit delta (Homo sapiens) (UniProt Q13557); experiment: Inhibition of wild-type human partial length CAMK2D (M1 to E329 residues) expressed in bacterial expression system assessed as residual activity at 1 uM by Kinomescan method relative to control
Chain of Calcium/calmodulin-dependent protein kinase type II subunit delta (Homo sapiens) (Q13557 whole entry, the tested form may be a part): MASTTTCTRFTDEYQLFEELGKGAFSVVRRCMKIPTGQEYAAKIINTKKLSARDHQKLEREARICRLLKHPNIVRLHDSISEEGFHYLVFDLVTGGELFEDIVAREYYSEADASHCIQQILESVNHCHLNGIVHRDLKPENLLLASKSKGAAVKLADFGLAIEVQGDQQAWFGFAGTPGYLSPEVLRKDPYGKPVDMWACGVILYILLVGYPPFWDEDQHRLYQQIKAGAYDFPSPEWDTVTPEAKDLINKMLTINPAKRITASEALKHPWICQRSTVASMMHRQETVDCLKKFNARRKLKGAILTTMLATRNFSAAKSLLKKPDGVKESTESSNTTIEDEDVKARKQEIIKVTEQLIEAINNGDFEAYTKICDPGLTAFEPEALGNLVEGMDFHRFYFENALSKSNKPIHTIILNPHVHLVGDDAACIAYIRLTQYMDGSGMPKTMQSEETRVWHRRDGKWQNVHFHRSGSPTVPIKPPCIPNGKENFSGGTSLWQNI

Chain of Dual specificity protein kinase CLK4 (Homo sapiens) (Q9HAZ1 whole entry, looked up, the tested form may be a part): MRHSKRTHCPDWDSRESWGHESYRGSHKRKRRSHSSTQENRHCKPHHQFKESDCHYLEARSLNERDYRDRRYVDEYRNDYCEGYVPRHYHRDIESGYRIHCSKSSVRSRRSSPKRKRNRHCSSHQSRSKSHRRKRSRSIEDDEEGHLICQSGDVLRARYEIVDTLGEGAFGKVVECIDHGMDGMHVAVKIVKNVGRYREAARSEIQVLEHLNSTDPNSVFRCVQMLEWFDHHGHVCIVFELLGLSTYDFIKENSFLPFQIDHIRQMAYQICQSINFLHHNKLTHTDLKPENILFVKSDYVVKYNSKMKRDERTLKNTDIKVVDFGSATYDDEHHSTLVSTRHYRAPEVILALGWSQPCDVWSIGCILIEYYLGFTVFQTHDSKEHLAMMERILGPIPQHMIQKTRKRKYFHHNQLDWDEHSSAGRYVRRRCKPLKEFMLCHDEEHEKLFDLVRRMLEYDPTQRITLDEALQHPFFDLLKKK
Chain of Tyrosine-protein kinase Srms (Homo sapiens) (Q9H3Y6 whole entry, the tested form may be a part): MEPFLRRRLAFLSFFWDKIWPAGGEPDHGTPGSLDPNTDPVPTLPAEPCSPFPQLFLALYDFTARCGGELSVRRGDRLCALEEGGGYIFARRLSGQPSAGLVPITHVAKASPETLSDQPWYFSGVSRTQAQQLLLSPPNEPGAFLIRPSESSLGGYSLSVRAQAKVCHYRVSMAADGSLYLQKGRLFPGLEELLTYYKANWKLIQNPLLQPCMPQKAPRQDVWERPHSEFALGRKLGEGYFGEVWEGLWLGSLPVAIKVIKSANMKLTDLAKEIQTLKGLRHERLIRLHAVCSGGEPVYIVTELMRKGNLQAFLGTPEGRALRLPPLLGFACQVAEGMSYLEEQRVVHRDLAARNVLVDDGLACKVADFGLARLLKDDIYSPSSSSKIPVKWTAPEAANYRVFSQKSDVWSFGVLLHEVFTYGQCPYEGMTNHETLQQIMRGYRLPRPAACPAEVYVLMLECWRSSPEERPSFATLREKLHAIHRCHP
Chain of Serine/threonine-protein kinase 32B (Homo sapiens) (Q9NY57 whole entry, the tested form may be a part): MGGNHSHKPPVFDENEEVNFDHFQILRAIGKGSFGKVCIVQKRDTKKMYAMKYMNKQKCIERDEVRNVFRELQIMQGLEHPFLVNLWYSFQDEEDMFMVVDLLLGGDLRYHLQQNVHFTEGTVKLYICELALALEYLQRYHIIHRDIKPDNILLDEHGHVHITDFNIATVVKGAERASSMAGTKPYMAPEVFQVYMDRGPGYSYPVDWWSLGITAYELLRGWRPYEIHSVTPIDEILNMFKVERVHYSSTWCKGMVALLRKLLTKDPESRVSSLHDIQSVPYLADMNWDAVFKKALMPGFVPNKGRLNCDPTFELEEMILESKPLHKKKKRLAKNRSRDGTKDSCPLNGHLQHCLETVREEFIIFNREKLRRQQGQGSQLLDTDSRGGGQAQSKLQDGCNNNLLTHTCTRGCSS
Chain of Serine/threonine-protein kinase DCLK2 (Homo sapiens) (Q8N568 whole entry, the tested form may be a part): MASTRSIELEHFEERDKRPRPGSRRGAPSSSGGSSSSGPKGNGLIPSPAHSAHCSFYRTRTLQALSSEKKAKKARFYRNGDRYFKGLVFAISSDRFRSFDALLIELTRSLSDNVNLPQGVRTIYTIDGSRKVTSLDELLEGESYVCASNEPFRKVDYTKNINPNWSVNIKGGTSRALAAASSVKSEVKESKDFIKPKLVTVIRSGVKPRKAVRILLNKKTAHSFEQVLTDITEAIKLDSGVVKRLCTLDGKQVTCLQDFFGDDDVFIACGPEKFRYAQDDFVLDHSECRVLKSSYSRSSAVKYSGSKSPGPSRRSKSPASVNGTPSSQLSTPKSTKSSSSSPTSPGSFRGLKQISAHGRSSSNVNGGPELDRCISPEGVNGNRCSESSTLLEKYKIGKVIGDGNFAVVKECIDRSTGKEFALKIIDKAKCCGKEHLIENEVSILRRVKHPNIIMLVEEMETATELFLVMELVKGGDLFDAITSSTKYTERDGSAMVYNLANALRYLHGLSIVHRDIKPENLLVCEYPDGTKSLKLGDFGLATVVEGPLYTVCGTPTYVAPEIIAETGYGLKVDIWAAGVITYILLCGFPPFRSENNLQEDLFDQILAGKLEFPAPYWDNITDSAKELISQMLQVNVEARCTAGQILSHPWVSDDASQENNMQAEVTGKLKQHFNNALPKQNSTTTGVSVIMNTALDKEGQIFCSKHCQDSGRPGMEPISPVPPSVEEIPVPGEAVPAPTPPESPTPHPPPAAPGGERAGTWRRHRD
Chain of Tyrosine-protein kinase Mer (Homo sapiens) (Q12866 whole entry, the tested form may be a part): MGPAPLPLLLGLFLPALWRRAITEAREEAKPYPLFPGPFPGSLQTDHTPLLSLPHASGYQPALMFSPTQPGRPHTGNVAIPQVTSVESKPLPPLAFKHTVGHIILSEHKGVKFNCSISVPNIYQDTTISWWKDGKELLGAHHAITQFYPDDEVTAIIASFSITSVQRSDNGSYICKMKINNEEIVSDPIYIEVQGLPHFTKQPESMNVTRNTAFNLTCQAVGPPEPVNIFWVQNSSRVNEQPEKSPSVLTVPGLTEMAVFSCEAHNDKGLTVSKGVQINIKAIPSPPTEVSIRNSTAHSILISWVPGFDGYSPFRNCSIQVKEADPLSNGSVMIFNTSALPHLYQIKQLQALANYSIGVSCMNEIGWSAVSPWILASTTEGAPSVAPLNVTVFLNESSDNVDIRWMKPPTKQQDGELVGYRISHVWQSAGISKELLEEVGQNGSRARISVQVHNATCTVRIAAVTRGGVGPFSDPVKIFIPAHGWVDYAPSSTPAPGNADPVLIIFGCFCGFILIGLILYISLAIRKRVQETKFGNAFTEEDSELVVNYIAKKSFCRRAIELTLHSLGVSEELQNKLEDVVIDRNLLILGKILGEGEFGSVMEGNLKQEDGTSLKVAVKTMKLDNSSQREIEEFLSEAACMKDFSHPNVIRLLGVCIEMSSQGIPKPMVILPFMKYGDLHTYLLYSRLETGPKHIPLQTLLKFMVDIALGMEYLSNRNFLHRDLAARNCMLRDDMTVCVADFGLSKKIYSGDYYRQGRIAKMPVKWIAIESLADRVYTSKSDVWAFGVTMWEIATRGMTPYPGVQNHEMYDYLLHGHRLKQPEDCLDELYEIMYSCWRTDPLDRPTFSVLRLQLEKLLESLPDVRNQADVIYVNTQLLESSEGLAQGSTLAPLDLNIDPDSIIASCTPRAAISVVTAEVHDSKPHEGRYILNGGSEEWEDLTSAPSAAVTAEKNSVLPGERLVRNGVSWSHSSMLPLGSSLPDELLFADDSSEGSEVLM
Chain of Rhodopsin kinase GRK7 (Homo sapiens) (Q8WTQ7 whole entry, the tested form may be a part): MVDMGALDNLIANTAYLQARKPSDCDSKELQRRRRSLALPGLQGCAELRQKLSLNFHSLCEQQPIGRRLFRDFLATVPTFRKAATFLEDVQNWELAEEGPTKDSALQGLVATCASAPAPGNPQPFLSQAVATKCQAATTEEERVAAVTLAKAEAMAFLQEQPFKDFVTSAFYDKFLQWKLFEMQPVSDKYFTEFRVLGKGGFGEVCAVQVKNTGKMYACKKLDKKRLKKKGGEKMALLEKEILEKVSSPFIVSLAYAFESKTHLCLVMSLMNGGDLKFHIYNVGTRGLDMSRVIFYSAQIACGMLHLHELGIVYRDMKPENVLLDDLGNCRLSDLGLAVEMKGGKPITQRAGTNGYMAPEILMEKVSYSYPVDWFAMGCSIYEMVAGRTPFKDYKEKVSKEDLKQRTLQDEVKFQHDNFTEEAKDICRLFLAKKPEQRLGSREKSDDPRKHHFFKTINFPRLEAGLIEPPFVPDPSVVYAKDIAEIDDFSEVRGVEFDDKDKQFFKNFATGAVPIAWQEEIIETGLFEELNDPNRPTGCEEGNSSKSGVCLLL
Chain of Ribosomal protein S6 kinase alpha-1 (Homo sapiens) (Q15418 whole entry, the tested form may be a part): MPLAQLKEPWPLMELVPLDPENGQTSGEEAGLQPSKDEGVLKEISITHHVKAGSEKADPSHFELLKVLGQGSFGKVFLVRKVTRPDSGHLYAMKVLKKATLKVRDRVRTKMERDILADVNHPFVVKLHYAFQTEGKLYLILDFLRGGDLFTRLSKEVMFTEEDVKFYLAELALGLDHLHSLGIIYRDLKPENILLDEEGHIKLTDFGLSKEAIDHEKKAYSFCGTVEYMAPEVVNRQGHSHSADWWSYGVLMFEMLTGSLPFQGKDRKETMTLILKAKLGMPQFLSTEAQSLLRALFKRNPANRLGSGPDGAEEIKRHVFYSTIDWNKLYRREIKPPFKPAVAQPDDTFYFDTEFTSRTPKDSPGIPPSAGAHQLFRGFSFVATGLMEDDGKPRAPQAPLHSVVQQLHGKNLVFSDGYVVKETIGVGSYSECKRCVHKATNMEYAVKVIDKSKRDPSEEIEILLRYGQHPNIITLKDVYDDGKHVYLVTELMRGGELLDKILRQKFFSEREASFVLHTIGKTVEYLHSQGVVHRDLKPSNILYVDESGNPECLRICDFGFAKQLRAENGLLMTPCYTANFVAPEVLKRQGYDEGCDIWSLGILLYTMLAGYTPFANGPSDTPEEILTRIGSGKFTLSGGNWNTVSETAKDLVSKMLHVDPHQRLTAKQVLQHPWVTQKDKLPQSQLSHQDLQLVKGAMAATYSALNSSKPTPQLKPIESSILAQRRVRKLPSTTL

CCOc1nc(Nc2ccc(C(=O)N3CCOCC3)cc2OC)nc2[nH]ccc12
Activity [1]: 108%
Activity [2]: 96.3%
Activity [3]: 103%
Activity [4]: 7.52%
fraction unbound [5]: 0.032
Activity [6]: 109%
Activity [7]: 87.1%
Activity [8]: 87.5%
Activity [9]: 97.5%
Activity [10]: 92.6%
Activity [11]: 108%
Activity [12]: 47.6%
Activity [13]: 88%
Activity [14]: 98.4%
Activity [15]: 95.5%
Activity [16]: 96.9%
Activity [17]: 100%
Activity [18]: 35.5%
Activity [19]: 98.4%
Activity [20]: 91.4%
Activity [21]: 93.3%
Activity [22]: 100%
Activity [23]: 93.8%
Activity [24]: 97%
Activity [25]: 109%
Activity [26]: 86.3%

— ChEMBL document CHEMBL4715821, “Discovery of 4-ethoxy-7H-pyrrolo[2,3-d]pyrimidin-2-amines as potent, selective and orally bioavailable LRRK2 inhibitors” (Bioorg Med Chem Lett, 2018)
